According to ChEMBL document CHEMBL6096723, “Discovery of novel capsaicin analogs as TRPV1 inhibitors for the treatment of idiopathic pulmonary fibrosis” (Eur J Med Chem, 2025):
Activity calls are given as the source filed them. The rule behind the calls is not given here.

What was measured:
[1] = Half life in Sprague-Dawley rat at 50 mg/kg, ip measured upto 4 hrs by UPLC-MS/MS analysis; type: ADME, organism-based; settings: in vivo
[2] = Cmax in Sprague-Dawley rat at 50 mg/kg, ip measured upto 4 hrs by UPLC-MS/MS analysis; type: ADME, organism-based; settings: in vivo
[3] = Half life in Sprague-Dawley rat at 50 mg/kg, po measured upto 4 hrs by UPLC-MS/MS analysis; type: ADME, organism-based; settings: in vivo
[4] = Cmax in Sprague-Dawley rat at 50 mg/kg, po measured upto 4 hrs by UPLC-MS/MS analysis; type: ADME, organism-based; settings: in vivo
[5] = system: Mus musculus; experiment: Anti-pulmonary fibrotic activity against bleomycin-induced pulmonary fibrosis mouse model assessed as inhibition of alpha-SMA expression in lung tissue at 10 to 20 mg/kg, ip administered every alternative day for 8 to 21 days after modeling by immunohistochemical staining based assay; type: functional, organism-based; settings: dose 10-20 mg/kg, time 8-21 day
[6] = MRT(0 to infinity) in Sprague-Dawley rat at 50 mg/kg, ip measured upto 4 hrs by UPLC-MS/MS analysis; type: ADME, organism-based; settings: in vivo
[7] = system: NIH3T3; experiment: Inhibition of TGFbeta-induced Smad3 phosphorylation in mouse NIH3T3 cells by Western blot analysis; type: functional, cell-based; settings: dose 1-10 µM
[8] = VRT(0 to t) in Sprague-Dawley rat at 50 mg/kg, ip measured upto 4 hrs by UPLC-MS/MS analysis; type: ADME, organism-based; settings: in vivo
[9] = system: Rattus norvegicus; experiment: Zeta in Sprague-Dawley rat at 50 mg/kg, ip measured upto 4 hrs by UPLC-MS/MS analysis; type: ADME, organism-based; settings: in vivo
[10] = Oral bioavailability in Sprague-Dawley rat at 50 mg/kg measured upto 4 hrs by UPLC-MS/MS analysis; type: ADME, organism-based; settings: in vivo
[11] = Clearance in Sprague-Dawley rat at 50 mg/kg, ip measured upto 4 hrs by UPLC-MS/MS analysis; type: ADME, organism-based; settings: in vivo
[12] = system: Mus musculus; experiment: Anti-fibrotic activity against bleomycin-induced pulmonary fibrosis mouse model assessed as increase in survival of mouse at 10 to 20 mg/kg, ip administered every alternative day for 8 to 21 days after modeling; type: functional, organism-based; settings: dose 10-20 mg/kg, time 8-21 day
[13] = Clearance in Sprague-Dawley rat at 50 mg/kg, iv measured upto 4 hrs by UPLC-MS/MS analysis; type: ADME, organism-based; settings: in vivo
[14] = system: Rattus norvegicus; experiment: Zeta in Sprague-Dawley rat at 50 mg/kg, iv measured upto 4 hrs by UPLC-MS/MS analysis; type: ADME, organism-based; settings: in vivo
[15] = Tmax in Sprague-Dawley rat at 50 mg/kg, ip measured upto 4 hrs by UPLC-MS/MS analysis; type: ADME, organism-based; settings: in vivo
[16] = Acute toxicity in Kunming male mouse assessed as Aspartate aminotransferase (AST) level at 180 mg/kg, ip measured after 14 days (reference value: 116.7 U/L); type: organism-based; settings: in vivo, 336 h, time 14 day
[17] = system: Mus musculus; experiment: Anti-pulmonary fibrotic activity against bleomycin-induced pulmonary fibrosis mouse model assessed as inhibition of Smad3 phosphorylation in lung tissue at 10 to 20 mg/kg, ip administered every alternative day for 8 to 21 days after modeling by immunohistochemical staining based assay; type: functional, organism-based; settings: dose 10-20 mg/kg, time 8-21 day
[18] = system: Mus musculus; experiment: Anti-fibrotic activity against bleomycin-induced pulmonary fibrosis mouse model assessed as decrease in hydroxyproline level in lung tissue at 10 to 20 mg/kg, ip administered every alternative day for 8 to 21 days after modeling […]; type: functional, organism-based; settings: dose 10-20 mg/kg, time 8-21 day
[19] = system: NIH3T3; experiment: Anti-fibrotic activity in mouse NIH3T3 cells assessed as inhibition of TGFbeta-induced total collagen production at 10 uM measured after 48 hrs by Sirius Red Collagen Detection Kit relative to control; type: functional
[20] = molecular target: Transient receptor potential cation channel subfamily V member 1 (Homo sapiens) (UniProt Q8NER1); experiment: Inhibition of TRPV1 (unknown origin) overexpressed in HEK-293T cells assessed as decrease in TGFbeta-induced alpha-SMA expression at 10 uM measured after 48 hrs incubation by Western blotting analysis; type: cell-based
Sequence of Transient receptor potential cation channel subfamily V member 1 (Homo sapiens) (Q8NER1 whole entry): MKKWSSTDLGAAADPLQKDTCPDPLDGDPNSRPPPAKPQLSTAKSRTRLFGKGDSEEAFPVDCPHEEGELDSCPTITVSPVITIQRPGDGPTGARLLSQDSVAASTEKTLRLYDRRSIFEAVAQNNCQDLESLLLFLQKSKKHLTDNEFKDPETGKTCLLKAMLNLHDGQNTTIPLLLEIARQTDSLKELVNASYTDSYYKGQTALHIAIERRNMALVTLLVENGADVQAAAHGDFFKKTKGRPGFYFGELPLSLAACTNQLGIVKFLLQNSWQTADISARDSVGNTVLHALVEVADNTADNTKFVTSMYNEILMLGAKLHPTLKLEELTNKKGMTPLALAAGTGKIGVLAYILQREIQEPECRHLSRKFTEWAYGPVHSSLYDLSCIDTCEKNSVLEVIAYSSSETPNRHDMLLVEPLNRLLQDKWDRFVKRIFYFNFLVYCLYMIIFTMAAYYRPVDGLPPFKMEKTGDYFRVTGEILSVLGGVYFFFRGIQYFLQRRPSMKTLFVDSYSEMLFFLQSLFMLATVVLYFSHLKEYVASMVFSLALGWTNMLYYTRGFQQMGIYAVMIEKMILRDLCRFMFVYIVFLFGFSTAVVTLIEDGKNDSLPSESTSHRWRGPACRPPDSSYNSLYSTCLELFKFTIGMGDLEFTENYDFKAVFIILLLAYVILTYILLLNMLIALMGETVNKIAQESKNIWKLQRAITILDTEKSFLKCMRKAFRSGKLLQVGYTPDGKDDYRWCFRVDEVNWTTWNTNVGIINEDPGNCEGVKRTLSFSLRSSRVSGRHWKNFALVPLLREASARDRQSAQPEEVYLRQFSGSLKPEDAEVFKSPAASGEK

[21] = system: Mus musculus; experiment: Anti-fibrotic activity against bleomycin-induced pulmonary fibrosis mouse model assessed as increase in lung compliance at 10 to 20 mg/kg, ip administered every alternative day for 8 to 21 days after modeling; type: functional, organism-based; settings: dose 10-20 mg/kg, time 8-21 day
[22] = system: NIH3T3; experiment: Anti-fibrotic activity in mouse NIH3T3 cells assessed as inhibition of TGFbeta-induced total collagen production measured after 48 hrs by Sirius Red Collagen Detection Kit relative to control; type: functional, cell-based; settings: NIH3T3, 48 h
[23] = Acute toxicity in Kunming female mouse assessed as Aspartate aminotransferase (AST) level at 180 mg/kg, ip measured after 14 days (reference value: 116.2 U/L); type: organism-based; settings: in vivo, 336 h, time 14 day
[24] = Toxicity in bleomycin-induced pulmonary fibrosis mouse model assessed as body weight change at 10 to 20 mg/kg, ip administered every alternative day for 8 to 21 days after modeling; type: organism-based; settings: in vivo, dose lower 10 mg/kg, time lower 8 day, dose upper 20 mg/kg, time upper 21 day
[25] = molecular target: Transient receptor potential cation channel subfamily V member 1 (Homo sapiens) (UniProt Q8NER1); experiment: Inhibition of TRPV1 (unknown origin) overexpressed in si-TRPV1-2 transfected HEK-293T cells assessed as decrease in TGFbeta-induced alpha-SMA expression at 10 uM measured after 48 hrs incubation by Western blotting analysis; type: cell-based
[26] = Acute toxicity in Kunming male mouse assessed as Total bilirubin (T-Bil) level at 180 mg/kg, ip measured after 14 days (reference value: 12.99 micromol/L); type: organism-based; settings: in vivo, 336 h, time 14 day
[27] = AUMC(0 to infinity) in Sprague-Dawley rat at 50 mg/kg, iv measured upto 4 hrs by UPLC-MS/MS analysis; type: ADME, organism-based; settings: in vivo
[28] = system: L929; experiment: Anti-migratory activity in mouse L929 cells assessed as inhibition of TGFbeta1-induced migration at 10 uM measured after 24 hrs by Wound healing assay; type: functional, cell-based
[29] = molecular target: Transient receptor potential cation channel subfamily V member 1 (Mus musculus) (UniProt Q704Y3); experiment: Thermal stabilization of TRPV1 in mouse NIH3T3 cells assessed as reduction in TRPV1 degradation at 60 degreeC measured after 30 mins by CETSA; type: cell-based; settings: dose 1-50 µM
Sequence of Transient receptor potential cation channel subfamily V member 1 (Mus musculus) (Q704Y3 whole entry): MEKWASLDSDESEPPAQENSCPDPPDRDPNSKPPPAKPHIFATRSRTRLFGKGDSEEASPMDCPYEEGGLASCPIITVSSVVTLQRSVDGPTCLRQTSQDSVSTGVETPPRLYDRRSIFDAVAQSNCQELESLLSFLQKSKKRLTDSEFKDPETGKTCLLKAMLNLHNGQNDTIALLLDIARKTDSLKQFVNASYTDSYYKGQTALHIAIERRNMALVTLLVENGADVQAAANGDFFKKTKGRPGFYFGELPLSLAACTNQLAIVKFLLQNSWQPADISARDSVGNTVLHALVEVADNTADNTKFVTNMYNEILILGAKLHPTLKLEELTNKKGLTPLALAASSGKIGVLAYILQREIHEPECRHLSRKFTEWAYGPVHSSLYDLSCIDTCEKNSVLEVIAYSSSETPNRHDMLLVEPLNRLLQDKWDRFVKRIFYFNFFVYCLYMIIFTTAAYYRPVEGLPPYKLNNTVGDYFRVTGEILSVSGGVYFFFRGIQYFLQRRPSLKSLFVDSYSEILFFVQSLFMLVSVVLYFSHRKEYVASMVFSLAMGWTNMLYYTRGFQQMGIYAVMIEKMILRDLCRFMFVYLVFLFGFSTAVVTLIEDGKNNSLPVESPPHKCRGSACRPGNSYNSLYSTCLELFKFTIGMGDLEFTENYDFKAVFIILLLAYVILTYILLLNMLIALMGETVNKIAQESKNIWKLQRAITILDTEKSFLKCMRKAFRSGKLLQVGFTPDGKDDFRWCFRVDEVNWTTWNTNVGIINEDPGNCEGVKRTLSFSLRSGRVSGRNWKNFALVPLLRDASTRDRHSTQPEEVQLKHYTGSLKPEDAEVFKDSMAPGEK

[30] = MRT(0 to t) in Sprague-Dawley rat at 50 mg/kg, iv measured upto 4 hrs by UPLC-MS/MS analysis; type: ADME, organism-based; settings: in vivo
[31] = AUMC(0 to t) in Sprague-Dawley rat at 50 mg/kg, ip measured upto 4 hrs by UPLC-MS/MS analysis; type: ADME, organism-based; settings: in vivo
[32] = Apparent volume of distribution in Sprague-Dawley rat at 50 mg/kg, iv measured upto 4 hrs by UPLC-MS/MS analysis; type: ADME, organism-based; settings: in vivo, read-out: Vz
[33] = Acute toxicity in Kunming female mouse assessed as Albumin (ALB) level at 180 mg/kg, ip measured after 14 days (reference value: 35.8 g/L); type: organism-based; settings: in vivo, 336 h, time 14 day
[34] = Acute toxicity in Kunming male mouse assessed as Alanine aminotransferase (ALT) level at 180 mg/kg, ip measured after 14 days (reference value: 55.3 U/L); type: organism-based; settings: in vivo, 336 h, time 14 day
[35] = system: NIH3T3; experiment: Inhibition of TGFbeta-induced p38 phosphorylation in mouse NIH3T3 cells at 1 to 10 uM by Western blot analysis; type: functional, cell-based; settings: dose 1-10 µM
[36] = system: Mus musculus; experiment: Anti-pulmonary fibrotic activity against bleomycin-induced pulmonary fibrosis mouse model assessed as reduction in BLM-induced […] expression in lung tissue at 10 to 20 mg/kg, ip administered every alternative day for 8 to 21 days after modeling; type: functional, organism-based; settings: dose 10-20 mg/kg, time 8-21 day

Compound `O=C(/C=C/c1ccc(O)c(O)c1)CCCCc1ccccc1` has a half-life [1] of 21 min, a Cmax [2] of 1490 ng/mL and a half-life [3] of 51 min. The Cmax [4] was 48.9 ng/mL, the Activity [5] was “Active” and the MRT inf [6] was 34.2 min. For the same compound, the inhibition [7] was “Dose-dependent-effect; Compound Showed Superior Inhibition Effect Than Nintedanib”, the “VRT(t)” value [8] was 0.53 hr2 and the Activity [9] was 1.98. The bioavailability [10] was 6.5%, the CL [11] was 305.45 mL/min/kg and the Activity [12] was “Active; Comparable To Nintedanib”. The CL [13] was 125 mL/min/kg, the Activity [14] was 1.07 and the Tmax [15] was 10.2 min. For the same compound, the Activity [16] was 125.2 U/L, the Activity [17] was “Active” and the Activity [18] was “Active”. For the same compound, the inhibition at 10 µM [19] was 80.7%, the inhibition [20] was “Active” and the Activity [21] was “Active”. For the same compound, the IC50 [22] was 0.51 µM, the Activity [23] was 160.5 U/L and the Activity [24] was “Non-toxic”. The inhibition [25] was “inactive”, the Activity [26] was 10.43 µmol/L and the AUMC [27] was 2122.825 ug/L.hr. For the same compound, the Activity [28] was “Active”, the Activity [29] was “Dose-dependent-effect” and the MRT last at 4 h [30] was 44.6 min. The AUMCt [31] was 568.11 ug/L.hr, the Vd [32] was 7.17 L/kg and the Activity [33] was 33.2 g/L. The Activity [34] was 34.5 U/L, the inhibition [35] was “Active” and the Activity [36] was “Active”.
